The nature of series [1]: Plasma pharmacokinetics after single i.v. dose. The settings on record: Sprague-Dawley, iv, rat. It counts as in vivo, Sprague Dawley rats.

Read-outs that look alike come from different tables or passages of the source.

In general, melting point refers to the temperature of the solid-liquid transition. In the case of `COc1cc2c(cc1OC)-c1[nH]c3ccc(C#N)cc3c1CC(=O)N2` [2,3-dimethoxy, 9-cyano, 2,3-dimethoxy-6-oxo-5,6,7,12-tetrahydro-indolo[3,2-d][1]benzazepine-9-carbonitrile], the melting point was > 330 °C.

Regarding `O=C1Cc2c([nH]c3ccccc23)-c2cc(Br)ccc2N1` [Example 2-Br, 2-bromo-7,12-dihydro-indolo[3,2-d][1]benzazepin-6(5H)-one], the melting point is > 330 °C. Consider `S=C1Cc2c([nH]c3ccc(Br)cc23)-c2ccccc2N1` [6 = S, 9-Br, 9-bromo-7,12-dihydro-indolo[3,2-d][1]benzazepine-6(5H) -thione], for which the melting point was > 330 °C. On the same count and under the same terms, under `COOC/C=C/c1ccc2c(c1)-c1[nH]c3ccc(C(F)(F)F)cc3c1CC(=O)N2` [3-(6-oxo-9-trifluoromethyl-5,6,7,12-tetrahydro-indolo[3,2d][1]benzazepin-2-yl)-acrylic acid methyl ester] stands > 330 °C.

As usually defined, the clearance is the volume of plasma or blood freed of the substance per unit of time. Lower therefore signals a low capacity for elimination. A word on the half-life: it is how long it takes for the measured level to halve. For `O=C1Cc2c([nH]c3ccc([N+](=O)[O-])cc23)-c2ccccc2N1` [Example 9-nitro, 9-nitro-7,12-dihydro-indolo[3,2-d][1]benzazepin-6(5H)-one], the clearance in series [1] (single i.v. 5 mg/kg in DMSO) turned out to be 16 mL/min/kg; in series [1] (single i.v. 10 mg/kg in DMSO), 14 mL/min/kg. Also, the half-life was 46 min in series [1] (single i.v. 5 mg/kg in DMSO, read-out: half life in the plasma) and 66 min in series [1] (single i.v. 10 mg/kg in DMSO, read-out: half life in plasma). `O=C1Cc2c([nH]c3ccc(Br)cc23)-c2cc(C[C@@H]3CO3)ccc2N1` [Example 34]: the melting point was 308 to 310 °C (dec.). On the same count and under the same terms, under `COc1ccc2[nH]c3c(c2c1)CC(=O)Nc1ccccc1-3` [Example 9-OCH3, 7,12-dihydro-9-methoxy-indolo[3,2-d][1]benzazepin-6(5H)-one] stands > 330 °C; under `COc1cc2c(cc1OC)-c1[nH]c3ccc([N+](=O)[O-])cc3c1CC(=O)N2` [2,3-dimethoxy, 9-nitro, 2,3-dimethoxy-9-nitro-7,12-dihydro-indolo[3,2-d][1]benzazepin-6(5H)-one], > 330 °C. `O=C1Cc2c([nH]c3ccc(C(F)(F)F)cc23)-c2cc(C#CC3(O)CCCCC3)ccc2N1` [2-[2-(1-hydroxycyclohexyl)-ethinyl]-9-trifluoromethyl-7,12-dihydro-indolo[3,2-d][1]-benzazepin-6(5H)-one]: the melting point is > 330 °C. Still for that read-out and setting: under `O=C1Cc2c([nH]c3ccc([N+](=O)[O-])cc23)-c2cc(Br)ccc2N1` [2-Br,9-nitro, 2-bromo-9-nitro-7,12-dihydro-indolo[3,2-d][1]benzazepin-6(5H)-one] stands > 330 °C.

(Values after patent publication US6610684B2, “Fused azepinone cyclin dependent kinase inhibitors” (The United States of America as represented by the …, priority 1998, dated 2003).)
